Reference: patent US20190209501A1, “COMPOSITIONS AND METHODS OF USE OF BETA-HYDROXY-BETA-METHYLBUTYRATE (HMB) […] IN[…]” (Texas Tech University Office of Research Commercialization, priority 2018, published 2019)

Assay: Blood markers (lipids, glucose, insulin)
Format: in vivo, human
Conditions: for Cholesterol Δ / Cholesterol Δ (%) / Glucose Δ / Glucose Δ (%) / HDL Δ / HDL Δ (%) / Insulin Δ / Insulin Δ (%) / LDL Δ / LDL Δ (%) / Triglycerides Δ / Triglycerides Δ (%) / VLDL Δ / VLDL Δ (%): baseline to W 8; for Cholesterol ES (d) / Glucose ES (d) / HDL ES (d) / Insulin ES (d) / LDL ES (d) / Triglycerides ES (d) / VLDL ES (d): effect size
Excerpt: At baseline and after 4 and 8 weeks of the intervention, participants completed two testing sessions: (1) a morning assessment conducted after an overnight fast for assessment of body composition, metabolism, vascular measures and subjective factors: and (2) an afternoon assessment of muscular performance, conducted in the non-fasted state. For morning assessments, participants reported to the laboratory after abstention from eating, drinking, exercising and utilizing caffeine or nicotine for ≥8 hours. Participants were interviewed to confirm adherence to these pre-assessment restrictions. The actual abstention from exercise was ≥14 hours due to the scheduling of exercise sessions. Participants reported to the laboratory wearing athletic clothing, and all metal and accessories were removed from the body prior to testing. Each participant voided her bladder and provided a urine sample. Urine samples were assessed for urine specific gravity (USG) using a digital refractometer (PA201X-093. Misco, Solon, Ohio. USA). Additionally, a standard urinary HCG test was performed to confirm that each participant was not pregnant. Finally, urinary samples were frozen at −80° C. for assessment of urinary HMB content after study unblinding. After voiding, each participant's body mass (BM) and height were determined via digital scale with stadiometer (Seca 769, Hamburg, Germany). Blood draws were performed at Texas Tech University Student Health Services after an overnight fast, and participants completed at-home saliva collections for assessment of the cortisol awakening response (CAR).
Blood samples collected by certified health professionals were transported via courier to a local clinical laboratory for analysis (University Medical Center Health System, Lubbock, Tex., USA). Testing was performed using standard instrumentation (Cobas 6000, Roche Diagnostics, Risch-Rotkreuz. Switzerland). Total cholesterol, triglycerides and HDL cholesterol were assessed using enzymatic colorimetric assays, and VLDL and non-HDL cholesterol were calculated. LDL cholesterol was calculated using the Martin-Hopkins equation (35). Glucose was measured using an enzymatic UV test, and insulin was assessed via electrochemiluminescence immunoassay. Results of the clinical laboratory analyses were provided to study investigators.

SMILES: CC(C)(O)CC(=O)O [TRFHMB, β-hydroxy-β-methylbutyrate]
- Cholesterol (ITT, Baseline): 178 ± 9 mg/dL
- Glucose (ITT, Baseline): 90 ± 3 mg/dL
- HDL (ITT, Baseline): 75 ± 4 mg/dL
- Insulin (ITT, Baseline): 10 ± 2 mcU/mL
- LDL (ITT, Baseline): 85 ± 7 mg/dL
- Triglycerides (ITT, Baseline): 95 ± 10 mg/dL
- VLDL (ITT, Baseline): 19 ± 2 mg/dL
- Cholesterol (ITT, W 8): 183 ± 11 mg/dL
- Glucose (ITT, W 8): 89 ± 3 mg/dL
- HDL (ITT, W 8): 68 ± 5 mg/dL
- Insulin (ITT, W 8): 13 ± 3 mcU/mL
- LDL (ITT, W 8): 97 ± 7 mg/dL
- Triglycerides (ITT, W 8): 85 ± 12 mg/dL
- VLDL (ITT, W 8): 17 ± 2 mg/dL
- Cholesterol Δ (ITT): 5 mg/dL
- Cholesterol Δ (%) (ITT): 3%
- Glucose Δ (ITT): -1 mg/dL
- Glucose Δ (%) (ITT): −1%
- HDL Δ (ITT): -7 mg/dL
- HDL Δ (%) (ITT): −9%
- Insulin Δ (ITT): 3 mcU/mL
- Insulin Δ (%) (ITT): 30%
- LDL Δ (ITT): 12 mg/dL
- LDL Δ (%) (ITT): 14%
- Triglycerides Δ (ITT): -10 mg/dL
- Triglycerides Δ (%) (ITT): −11%
- VLDL Δ (ITT): -2 mg/dL
- VLDL Δ (%) (ITT): −11%
- Cholesterol ES (d) (ITT): 0.14
- Glucose ES (d) (ITT): −0.09
- HDL ES (d) (ITT): −0.43
- Insulin ES (d) (ITT): 0.27
- LDL ES (d) (ITT): 0.48
- Triglycerides ES (d) (ITT): −0.25
- VLDL ES (d) (ITT): −0.28
- Cholesterol (PP, Baseline): 168 ± 13 mg/dL
- Glucose (PP, Baseline): 92 ± 4 mg/dL
- HDL (PP, Baseline): 72 ± 5 mg/dL
- Insulin (PP, Baseline): 9 ± 3 mcU/mL
- LDL (PP, Baseline): 78 ± 9 mg/dL
- Triglycerides (PP, Baseline): 91 ± 14 mg/dL
- VLDL (PP, Baseline): 18 ± 3 mg/dL
- Cholesterol (PP, W 8): 183 ± 15 mg/dL
- Glucose (PP, W 8): 90 ± 4 mg/dL
- HDL (PP, W 8): 70 ± 6 mg/dL
- Insulin (PP, W 8): 10 ± 3 mcU/mL
- LDL (PP, W 8): 96 ± 9 mg/dL
- Triglycerides (PP, W 8): 80 ± 17 mg/dL
- VLDL (PP, W 8): 16 ± 3 mg/dL
- Cholesterol Δ (PP): 15 mg/dL
- Cholesterol Δ (%) (PP): 9%
- Glucose Δ (PP): -2 mg/dL
- Glucose Δ (%) (PP): −2%
- HDL Δ (PP): -2 mg/dL
- HDL Δ (%) (PP): −3%
- Insulin Δ (PP): 1 mcU/mL
- Insulin Δ (%) (PP): 11%
- LDL Δ (PP): 18 mg/dL
- LDL Δ (%) (PP): 23%
- Triglycerides Δ (PP): -11 mg/dL
- Triglycerides Δ (%) (PP): −12%
- VLDL Δ (PP): -2 mg/dL
- VLDL Δ (%) (PP): −11%
- Cholesterol ES (d) (PP): 0.40
- Glucose ES (d) (PP): −0.19
- HDL ES (d) (PP): −0.14
- Insulin ES (d) (PP): 0.55
- LDL ES (d) (PP): 0.76
- Triglycerides ES (d) (PP): −0.27
- VLDL ES (d) (PP): −0.30
